According to patent publication US6365584B1, “Arylysulphonamide-substituted benzimidazoles having tryptase-inhibiting activity” (Boehringer Ingelheim Pharma KG, priority 1999, dated 2002):

Target: T1, rh beta tryptase (Homo sapiens, UniProt Q15661)
T1 construct: purchased Promega
Test: tryptase inhibition test (cleavage of N-p-tosyl-Gly-Pro-Lys-para-nitroaniline, p-nitroaniline measured at 405 nm)
Assay type: biochemical
Settings: Tris HCl buffer pH 7.4 with calcium and heparin; substrate 0.6 mM; 5 min pre-incubation, 5 min incubation at 37° C.; enzyme activity 0.91 U/ml
Description: The compounds according to the invention are characterised by their tryptase-inhibiting activity. This ability to inhibit tryptase was investigated using the test described below. The measurement is carried out in Tris HCl buffer (100 mM), which additionally contains calcium (5 mM) and heparin (100 mg/ml), at pH 7.4. The standard used is rh beta tryptase which may be obtained commercially from Promega, for example. The substrate used is N-p-tosyl-Gly-Pro-Lys-para-nitroaniline in a concentration of 0.6 mM. The substrate is digested with tryptase to form p-nitroaniline which can be measured at 405 nm. Usually, an incubation period of 5 minutes and an incubation temperature of 37° C. are chosen. The enzyme activity used is 0.91 U/ml. The measurements are carried out in an Autoanalyser (CobasBio) made by Hofmann LaRoche. The potential inhibitory substances are used in concentrations of 10 μM in the screening, the inhibition of the tryptase being given in percent. The IC50 is determined at over 70% inhibition (concentration at which 50% of the enzyme activity is inhibited). After 5 minutes' pre-incubation of the potential inhibitory substances, the substrate is added to start the reaction, the formation of p-nitroaniline being taken as a measurement of the enzyme activity after 5 minutes, after testing the linearity.
The data obtained after the above test has been carried out (IC50 values) can be found in Table 3.

T1 sequence (Q15661 31-275): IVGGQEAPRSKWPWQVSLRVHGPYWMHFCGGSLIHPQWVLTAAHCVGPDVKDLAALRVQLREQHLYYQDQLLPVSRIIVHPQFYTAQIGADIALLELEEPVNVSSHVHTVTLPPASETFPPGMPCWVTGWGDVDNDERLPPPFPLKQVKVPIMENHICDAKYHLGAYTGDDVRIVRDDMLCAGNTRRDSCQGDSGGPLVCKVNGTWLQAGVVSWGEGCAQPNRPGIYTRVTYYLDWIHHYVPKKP

Structure (SMILES)	IC50 [nM]
Cn1c(CCc2ccc(C(=N)N)cc2)nc2cc(N(CC(=O)N3CCN(c4ccncc4)CC3)S(=O)(=O)c3ccc4ccccc4c3)ccc21 [Example 49, 1-Methyl-2-[2-(4-amidino-phenyl)-ethyl]-5-[N-(4′-pyrid-4″- yl-piperazin-1-yl-carbonyl-methyl)-naphth-2-ylsulphonyl-amino]-benzimidazole]	186
Cn1c(CCc2ccc(C(=N)N)cc2)nc2cc(N(CC(=O)N3CCN(Cc4ccccc4)CC3)S(=O)(=O)c3ccc4ccccc4c3)ccc21 [Example 50, 1-Methyl-2-[2-(4-amidino-phenyl)-ethyl]-5-[N-(4′-benzyl-piperazin-1-yl-carbonylmethyl)-naphth-2-ylsulphonylamino]-benzimidazole]	215
CN1CCCN(C(=O)CN(c2ccc3c(c2)nc(CCc2ccc(C(=N)N)cc2)n3C)S(=O)(=O)c2ccccc2)CC1 [Example 55, 1-Methyl-2-[2-(4-amidino-phenyl)-ethyl]-5-[N-(4-methyl-1,4-diazepin-1-yl-carbonyl-methyl)-benzenesulphonyl-amino]-benzimidazole]	28

Results, then the compound that gave them:

IC50 [nM]	Structure (SMILES)
144	Cn1c(CCc2ccc(C(=N)N)cc2)nc2cc(N(CC(=O)N3CCNCC3)S(=O)(=O)c3ccc4ccccc4c3)ccc21 [Example 48, 1-Methyl-2-[2-(4-amidino-phenyl)-ethyl]-5-[N-(piperazin-1-yl-carbonylmethyl)-naphth-2-ylsulphonylamino]-benzimidazole]
29	CCN(CC)CCN(c1ccc2c(c1)nc(CCc1ccc(C(=N)N)cc1)n2C)S(=O)(=O)c1cccc2cccnc12 [Example 52, 1-Methyl-2-[2-(4-amidino-phenyl)-ethyl]-5-[N-(2-diethyl-aminoethyl)-quinol-8-yl-sulphonylamino]-benzimidazole;]
38	CCN(CC)CCN(c1ccc2c(c1)nc(CCc1ccc(C(=N)N)cc1)n2C)S(=O)(=O)c1cccc2cnccc12 [Example 53, 1-Methyl-2-[2-(4-amidino-phenyl)-ethyl]-5-[N-(2-diethyl-aminoethyl)-isoquinol-5-yl-sulphonylamino]-benzimidazole;]
27	CN(C)CCCCN(c1ccc2c(c1)nc(CCc1ccc(C(=N)N)cc1)n2C)S(=O)(=O)c1ccccc1 [Example 54, 1-Methyl-2-[2-(4-amidino-phenyl)-ethyl]-5-[N-(4-dimethyl-aminobutyl)-benzenesulphonyl-amino]-benzimidazole]

Test system: not given
Test: not given
Settings: not given

melting point [°C]	Structure (SMILES)
183 to 186	Cn1c(CCc2ccc(/C(N)=N/O)cc2)nc2cc(N(CCN3CCOCC3)S(=O)(=O)c3ccccc3)ccc21 [Example 56, N-{2-[2-(4-(amino-hydroximinomethyl)-phenyl)-ethyl]-1-methyl-benzimidazol-5-yl}-N-[2-(morpholin-4-yl)-ethyl]-(benzenesulphonamide)]
